The results in this text go back to ChEMBL document CHEMBL1142357, “Synthesis and biological evaluation of 1-methyl-2-(3',4',5'-trimethoxybenzoyl)-3-aminoindoles as a new class of antimitotic agents and tubulin inhibitors” (J Med Chem, 2008).

Test [1] is described as follows: Antiproliferative activity against human Molt4/C8 cells. Type of test: functional, cell-based. The conditions noted are these: MOLT-4.
Test [2] concerns L1210. As to the kind of experiment: Antiproliferative activity against mouse L1210 cells. Type of test: functional, cell-based.
Test [3] has as its system CCRF-CEM. The test is described as follows: Antiproliferative activity against human CEM cells. Type of test: functional, cell-based.
The subject of test [4] is FM3A. As to the kind of experiment: Antiproliferative activity against mouse FM3A cells. In kind it is functional, cell-based.
A short description of test [5]: Inhibition of bovine tubulin polymerization after 20 mins. Also on record: species or system Bos taurus.
For test [6], the system named is K562. As to the kind of experiment: Induction of apoptosis in human K562 cells at 60 nM after 48 hrs by fluorescence microscopy. In kind it is functional.
The test system of test [7] is K562. The test is described as follows: Cell cycle arrest in human K562 cells by accumulation at G2/M phase at 30 nM after 24 hrs by flow cytometry. Type of test: functional. For orientation: A flow cytometer gives signals particle by particle.
Test [8] deals with K562. The test is described as follows: Induction of apoptosis in human K562 cells after 48 hrs by fluorescence microscopy. In kind it is functional, cell-based. Particulars: K562, 48 h.
For test [9], the species on record is Bos taurus. The test is described as follows: Displacement of [3H]colchicine from bovine tubulin at 5 uM. In general terms: Displacement assays read how much labelled ligand stays bound in the presence of the test substance.
Test [10] concerns K562. As to the kind of experiment: Cell cycle arrest in human K562 cells by accumulation at A phase at 30 nM after 24 hrs by flow cytometry. Type of test: functional.
Test [11] relates to K562. As to the kind of experiment: Cell cycle arrest in human K562 cells by accumulation at G0/G1 phase at 30 nM after 24 hrs by flow cytometry. In kind it is functional.
The subject of test [12] is K562. As to the kind of experiment: Cell cycle arrest in human K562 cells by accumulation at S phase at 30 nM after 24 hrs by flow cytometry. In kind it is functional.
Test [13] deals with K562. The test is described as follows: Cell cycle arrest in human K562 cells by accumulation at sub G0-G1 phase at 3 uM after 24 hrs by flow cytometry. Type of test: functional.
Test [14] deals with K562. As to the kind of experiment: Cell cycle arrest in human K562 cells by accumulation at S phase at 3 uM after 24 hrs by flow cytometry. Type of test: functional.
Test [15] deals with K562. The test is described as follows: Cell cycle arrest in human K562 cells by accumulation at G0/G1 phase at 3 uM after 24 hrs by flow cytometry. Type of test: functional.
The subject of test [16] is K562. The test is described as follows: Cell cycle arrest in human K562 cells by accumulation at G2/M phase at 3 uM after 24 hrs by flow cytometry. Type of test: functional.
Test [17] deals with K562. The test is described as follows: Cell cycle arrest in human K562 cells by accumulation at G2/M phase at 200 nM after 24 hrs by flow cytometry. In kind it is functional.
Test [18] concerns K562. As to the kind of experiment: Cell cycle arrest in human K562 cells by accumulation at S phase at 200 nM after 24 hrs by flow cytometry. In kind it is functional.
For test [19], the system named is K562. As to the kind of experiment: Cell cycle arrest in human K562 cells by accumulation at A phase at 200 nM after 24 hrs by flow cytometry. In kind it is functional.
In test [20] the test system is K562. The test is described as follows: Cell cycle arrest in human K562 cells by accumulation at G0/G1 phase at 200 nM after 24 hrs by flow cytometry. Type of test: functional.

Each structure is given as a SMILES string.

The IC50 is the midpoint of a concentration-inhibition curve. The low end stands for inhibition by little substance, the high end for a need for much substance. As for `COc1cc(C(=O)c2[nH]c3c(OC)cccc3c2N)cc(OC)c1OC`, the IC50 was 0.64 µM in test [1], above 10 µM in test [2], 0.63 µM in [3] and above 10 µM in [4].
For `COc1cc(C(=O)c2c(N)c3cc(C)ccc3n2C)cc(OC)c1OC`, the IC50 in test [1] stood at 1.7 µM; in [2], 1.9 µM; in [3] it was 1.7 µM; in test [4], 1.6 µM; in [5] it was 10 µM.
Broadly, the AC50 is the concentration giving half of the maximal activity seen. High values mean activity only at high concentration, low ones activity at low concentration. As usually defined, the inhibition is the change of the read-out against control, counted positive when it falls. For `COc1cc(C(=O)c2c(N)c3cccc(OC)c3n2C)cc(OC)c1OC`, the Activity was determined as 100% in test [6]; 45% in [7]; 24% in [10]; 27% in test [11]; 28% in test [12]. In addition, the AC50 in test [8] is 0.03 µM. Moreover, the IC50 amounted to 0.0038 µM in [1]; 0.015 µM in [2]; 0.0088 µM in [3]; 0.015 µM in [4]; 1.4 µM in test [5]. In addition, in test [9], the inhibition was 76%.
As for `COc1ccc2c(C(=O)c3cc(OC)c(OC)c(OC)c3)c[nH]c2c1`, the IC50 in [1] was determined as 0.0034 µM; in test [2], 0.0035 µM; in test [3] it was 0.0036 µM; in test [4] it was 0.0037 µM; in test [5], 2.9 µM. In test [9], this molecule displayed an inhibition of 84%.
For `COc1ccc2c(c1)c(N)c(C(=O)c1cc(OC)c(OC)c(OC)c1)n2C`, the IC50 in [1] was 2.1 µM; in test [2] it was 4.2 µM; in [3], 3.9 µM; in test [4], 5.2 µM; in test [5], 15 µM.
For the molecule `COc1cc(C(=O)c2[nH]c3cc(Cl)ccc3c2N)cc(OC)c1OC`, the IC50 in test [1] was 9.2 µM; in [2] it was above 10 µM; in test [3], above 10 µM; in [4], above 10 µM.
Regarding `COc1cc(C(=O)c2[nH]c3ccc(Cl)cc3c2N)cc(OC)c1OC`, the IC50 in test [1], in [2], in [3] and in test [4] was above 10 µM each time.
Consider `COc1cc(C(=O)c2[nH]c3ccccc3c2N)cc(OC)c1OC`, for which the IC50 in [1], in test [2], in test [3] and in [4] was above 10 µM throughout.
As to `CCn1c(C(=O)c2cc(OC)c(OC)c(OC)c2)c(N)c2ccccc21`, the IC50 in test [1], in test [2], in test [3] and in [4] was above 10 µM throughout.
For the molecule `COc1cc(C(=O)c2[nH]c3ccc(C)cc3c2N)cc(OC)c1OC`, the IC50 in test [1], in [2], in test [3] and in test [4] was above 10 µM each time.
In the case of `COc1ccc2[nH]c(C(=O)c3cc(OC)c(OC)c(OC)c3)c(N)c2c1`, the 50% inhibitory concentration (IC50) in test [1] amounted to 6.9 µM; in test [2], 9.7 µM; in [3], 8.6 µM; in test [4], 9.9 µM.
Consider `COc1cc2[nH]c(C(=O)c3cc(OC)c(OC)c(OC)c3)c(N)c2cc1OC`, for which the IC50 in [1] is 8.6 µM; in [2] it was above 10 µM; in test [3], 9.5 µM; in [4] it was above 10 µM.
On to `COc1ccc2c(N)c(C(=O)c3cc(OC)c(OC)c(OC)c3)[nH]c2c1`, for which the Activity in test [13] worked out at 25%; in test [14], 35%; in test [15], 15%; in [16], 50%. In test [8], this molecule showed an AC50 of 3 µM. Moreover, the IC50 was 0.63 µM in [1]; 0.97 µM in [2]; 0.32 µM in test [3]; 1.6 µM in test [4]; above 40 µM in test [5].
With `COc1cc(C(=O)c2sc3c(OC)cccc3c2N)cc(OC)c1OC`, the IC50 in test [1] is 0.0085 µM; in test [2], 0.033 µM; in [3] it was 0.0089 µM; in test [4], 0.027 µM; in test [5], 2.1 µM. In test [9], the inhibition came out at 39%.
As for `COc1cc(C(=O)c2c(N)c3c(OC)cccc3n2C)cc(OC)c1OC`, the IC50 in [1], in test [2], in [3] and in test [4] was above 10 µM throughout.
For `COc1cc(C(=O)c2c(N)c3cccc(C)c3n2C)cc(OC)c1OC`, the IC50 in test [1] amounted to 0.27 µM; in test [2], 1.8 µM; in test [3], 1.2 µM; in test [4] it was 1.4 µM; in test [5], 8.4 µM.
For the molecule `COc1cc(C(=O)c2c(N)c3c(C)cccc3n2C)cc(OC)c1OC`, the IC50 in [1], in test [2], in test [3] and in test [4] was above 10 µM throughout.
With `COc1cc(C(=O)c2[nH]c3cccc(C)c3c2N)cc(OC)c1OC`, the IC50 in test [1], in test [2], in test [3] and in [4] was above 10 µM in each case.
As to `COc1cc(C(=O)c2[nH]c3cccc(OC)c3c2N)cc(OC)c1OC`, the IC50 in test [1], in test [2], in test [3] and in [4] was above 10 µM each time.
Regarding `COc1cc(C(=O)c2[nH]c3c(C)cccc3c2N)cc(OC)c1OC`, the half-inhibitory concentration (IC50) in test [1], in test [2], in test [3] and in test [4] was above 10 µM throughout.
Regarding `COc1cc(C(=O)c2[nH]c3cc(C)ccc3c2N)cc(OC)c1OC`, the IC50 in test [1] was 1.4 µM; in test [2], 3.5 µM; in [3], 2.6 µM; in test [4], above 10 µM.
As to `CCn1c(C(=O)c2cc(OC)c(OC)c(OC)c2)c(N)c2cccc(OC)c21`, the IC50 was 9.1 µM in test [1], above 10 µM in [2], above 10 µM in [3] and above 10 µM in [4].
Take `COc1ccc(/C=C\c2cc(OC)c(OC)c(OC)c2)cc1O` [COMBRETASTATIN A4]: half-maximal inhibition in [1] (IC50) required 0.0016 µM.
Turning to `CCn1c(C(=O)c2cc(OC)c(OC)c(OC)c2)c(N)c2ccc(OC)cc21`, the IC50 in test [1], in test [2], in test [3] and in test [4] was above 10 µM throughout.
Turning to `COc1ccc2c(N)c(C(=O)c3cc(OC)c(OC)c(OC)c3)n(C)c2c1`, the Activity is reported as 52% in test [17], 33% in test [18], 23% in test [19] and 15% in test [20]. In test [8], the activity was half-maximal at 0.15 µM (AC50). Also, the IC50 came to 0.057 µM in test [1]; 0.069 µM in test [2]; 0.071 µM in test [3]; 0.097 µM in [4]; 4.6 µM in [5]. For the same molecule, the inhibition in test [9] amounted to 38%.
As to `COc1cc2c(N)c(C(=O)c3cc(OC)c(OC)c(OC)c3)n(C)c2cc1OC`, the IC50 in test [1] was 5 µM; in [2], 5.4 µM; in test [3] it was 5 µM; in [4], 5 µM; in test [5], 18 µM.
Regarding `COc1cc(C(=O)c2c(N)c3ccc(Cl)cc3n2C)cc(OC)c1OC`, the IC50 was 0.48 µM in [1]; 1.1 µM in test [2]; 1 µM in [3]; 0.97 µM in test [4]; 7.1 µM in [5].
In the case of `COc1cc(C(=O)c2c(N)c3ccc(C)cc3n2C)cc(OC)c1OC`, the 50% inhibitory concentration (IC50) in test [1] worked out at 0.11 µM; in test [2], 1.9 µM; in test [3], 0.4 µM; in test [4], 1.5 µM; in [5] it was 6.4 µM.
`COc1cc(C(=O)c2c(N)c3ccccc3n2C)cc(OC)c1OC`: the IC50 in test [1] is 2.1 µM; in test [2], 8.1 µM; in test [3] it was 6.8 µM; in test [4] it was above 10 µM.
